Experimental data taken from patent publication US12344623B2, “Thiazolopyridine derivatives as adenosine receptor antagonists” (Merck Patent GmbH, priority 2019, dated 2025).
pIC50: −log10 of the molar value. Like-named read-outs stand apart in the source and are kept apart here.

What was measured:
Type in all cases: cell-based
[1] = target: T1, human A2B receptor (Homo sapiens, UniProt P29275); assay: Functional A2B receptor activity, recombinant HEK293 cells, cAMP (HTRF), agonist NECA; settings: read-out: Functional A2B receptor activity, HEK293, cAMP, IC50
T1 construct: expressed in transfected cells; host or cells: HEK293
T1 sequence (P29275 1-332): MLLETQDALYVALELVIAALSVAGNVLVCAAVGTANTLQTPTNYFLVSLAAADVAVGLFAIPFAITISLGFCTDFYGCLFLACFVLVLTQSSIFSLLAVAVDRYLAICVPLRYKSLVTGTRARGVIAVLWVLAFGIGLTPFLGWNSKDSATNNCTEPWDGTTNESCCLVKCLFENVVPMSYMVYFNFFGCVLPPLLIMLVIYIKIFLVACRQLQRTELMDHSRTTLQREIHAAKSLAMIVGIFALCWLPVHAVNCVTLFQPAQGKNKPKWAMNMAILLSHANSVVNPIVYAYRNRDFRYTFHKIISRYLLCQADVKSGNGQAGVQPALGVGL
Method in brief: (§1)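 Cellular cAMP measured by HTRF after 30 min incubation of cells with forskolin, test compounds and agonist. Data normalized to inhibitor control and DMSO neutral control, then curve-fitted.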

[2] = target: T2, human A1 receptor (Homo sapiens, UniProt P30542); assay: Functional A1 receptor activity, recombinant CHO cells, cAMP (HTRF), forskolin, agonist CPA; settings: recombinant CHO cells, forskolin, agonist CPA, read-out: Functional A1 receptor activity, CHO, cAMP, IC50
T2 construct: expressed in transfected cells; host or cells: CHO
T2 sequence (P30542 1-326): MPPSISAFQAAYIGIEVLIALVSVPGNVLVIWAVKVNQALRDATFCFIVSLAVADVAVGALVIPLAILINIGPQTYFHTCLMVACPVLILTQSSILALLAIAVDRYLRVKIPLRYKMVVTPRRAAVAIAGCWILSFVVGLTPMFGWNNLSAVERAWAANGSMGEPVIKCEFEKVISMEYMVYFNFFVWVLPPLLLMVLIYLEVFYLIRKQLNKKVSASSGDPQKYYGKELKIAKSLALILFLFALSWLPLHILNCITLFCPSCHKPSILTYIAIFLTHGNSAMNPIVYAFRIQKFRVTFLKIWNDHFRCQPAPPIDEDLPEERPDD
Method in brief: (§2)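 Recombinant CHO cells expressing A1 or A3 receptor (Gi-coupled) were stimulated with forskolin together with test compound and agonist (CPA for A1, IB-MECA for A3), incubated 30 min, then cellular cAMP was read by HTRF. Data were normalized to inhibitor control and DMSO neutral control, then curve-fitted.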

[3] = target: human A2A receptor (Homo sapiens, UniProt P29274); assay: Functional A2A receptor activity, recombinant HEK293 cells, cAMP (HTRF), agonist NECA; set-up: expressed in transfected cells; host or cells: HEK293; settings: read-out: Functional A2A receptor activity, HEK293, cAMP, IC50
human A2A receptor, sequence (P29274 whole entry): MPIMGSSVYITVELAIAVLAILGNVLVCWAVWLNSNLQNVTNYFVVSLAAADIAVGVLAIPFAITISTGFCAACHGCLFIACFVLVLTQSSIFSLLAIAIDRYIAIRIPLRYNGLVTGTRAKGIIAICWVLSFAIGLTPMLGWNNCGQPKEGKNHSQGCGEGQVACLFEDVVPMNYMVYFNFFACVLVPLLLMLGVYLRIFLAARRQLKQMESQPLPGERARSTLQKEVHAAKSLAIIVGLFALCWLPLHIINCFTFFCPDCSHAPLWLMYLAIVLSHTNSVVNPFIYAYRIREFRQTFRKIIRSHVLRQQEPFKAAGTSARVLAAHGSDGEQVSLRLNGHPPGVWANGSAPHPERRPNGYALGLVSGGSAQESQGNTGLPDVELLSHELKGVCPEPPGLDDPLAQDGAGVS
Method in brief: as §1

[4] = target: T3, human A3 receptor (Homo sapiens, UniProt P0DMS8); assay: Functional A3 receptor activity, recombinant CHO cells, cAMP (HTRF), forskolin, agonist IB-MECA; settings: recombinant CHO cells, forskolin, agonist IB-MECA, read-out: Functional A3 receptor activity, CHO, cAMP, IC50
T3 construct: expressed in transfected cells; host or cells: CHO
T3 sequence (P0DMS8 1-318): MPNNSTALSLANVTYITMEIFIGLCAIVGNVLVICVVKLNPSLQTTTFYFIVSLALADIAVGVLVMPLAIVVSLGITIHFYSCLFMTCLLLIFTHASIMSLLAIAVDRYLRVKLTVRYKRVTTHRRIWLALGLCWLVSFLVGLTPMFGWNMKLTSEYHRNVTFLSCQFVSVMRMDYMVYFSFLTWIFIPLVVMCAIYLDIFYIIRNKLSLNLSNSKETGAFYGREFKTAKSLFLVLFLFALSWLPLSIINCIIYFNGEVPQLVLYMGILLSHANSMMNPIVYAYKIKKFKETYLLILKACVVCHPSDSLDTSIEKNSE
Method in brief: as §2

| SMILES | pIC50 [1] | pIC50 [2] | pIC50 [3] | pIC50 [4] | pIC50 ([2]; cAMP) | pIC50 ([4]; cAMP) |
| --- | --- | --- | --- | --- | --- | --- |
| COc1ncc(-c2ccccc2)c2sc(NC(=O)c3ccc(C(=O)O)cc3)nc12 [Compound 109, 4-({4-methoxy-7-phenyl-[1,3]thiazolo[4,5-c]pyridin-2-yl}carbamoyl)benzoic acid] | > 8.00 | < 6.00 | > 8.00 | < 6.00 |  |  |
| COc1ncc(-c2ccccc2)c2sc(NC(=O)N3CCC(C(=O)N(C)C)CC3)nc12 [Compound 123, Piperidine-1,4-dicarboxylic acid 4-dimethylamide 1-[(4-methoxy-7-phenyl-thiazolo[4,5-c]pyridin-2-yl)-amide]] | > 7.00 | < 6.00 | > 8.00 | < 6.00 |  |  |
| COc1ncc(C2COCCO2)c2sc(NC(=O)N3CCC4(CCOCC4)C3)nc12 (stereo not drawn) [Compound 73, 8-Oxa-2-aza-spiro[4.5]decane-2-carboxylic acid (7-[1,4]dioxan-2-yl-4-methoxy-thiazolo[4,5-c]pyridin-2-yl)-amide] | > 7.00 | < 6.00 | > 8.00 | < 6.00 |  |  |
| COc1ncc(-c2cnn(Cc3ccccc3)c2)c2sc(NC(=O)N3CCC4(CCOCC4)C3)nc12 [Compound 76, 8-Oxa-2-aza-spiro[4.5]decane-2-carboxylic acid [7-(1-benzyl-1H-pyrazol-4-yl)-4-methoxy-thiazolo[4,5-c]pyridin-2-yl]-amide] | > 8.00 | > 7.00 | > 8.00 | < 6.00 |  |  |
| COCCNc1ncc(C(=O)Nc2nc3c(OC)ncc(C4CCOCC4)c3s2)s1 [Compound 17, N-[4-methoxy-7-(oxan-4-yl)-[1,3]thiazolo[4,5-c]pyridin-2-yl]-2-[(2-methoxyethyl)amino]-1,3-thiazole-5-carboxamide] | > 8.00 | > 6.00 | > 8.00 | < 6.00 |  |  |
| COc1ncc(C2=CCOCC2)c2sc(NC(=O)c3ccc(C(=O)N4CCC(C)(O)CC4)cc3)nc12 [Compound 129, N-[7-(3,6-Dihydro-2H-pyran-4-yl)-4-methoxy-thiazolo[4,5-c]pyridin-2-yl]-4-(4-hydroxy-4-methyl-piperidine-1-carbonyl)-benzamide] | > 7.00 | > 6.00 | > 8.00 | < 6.00 |  |  |
| COc1ncc(C2=CCOCC2)c2sc(NC(=O)Nc3ccc(N4N=C(C)CC4=O)cc3)nc12 [Compound 94, 3-[7-(3,6-dihydro-2H-pyran-4-yl)-4-methoxy-[1,3]thiazolo[4,5-c]pyridin-2-yl]-1-[4-(3-methyl-5-oxo-4,5-dihydro-1H-pyrazol-1-yl)phenyl]urea] | > 7.00 | < 6.00 | > 8.00 | < 6.00 |  |  |
| COc1ncc(-c2cnn(Cc3ccncc3)c2)c2sc(NC(=O)N3CCC4(CCOCC4)C3)nc12 [Compound 75, 8-Oxa-2-aza-spiro[4.5]decane-2-carboxylic acid [4-methoxy-7-(1-pyridin-4-ylmethyl-1H-pyrazol-4-yl)-thiazolo[4,5-c]pyridin-2-yl]-amide] | > 7.00 | < 6.00 | > 8.00 | < 6.00 |  |  |
| COc1cnc(N2CCOCC2)c2sc(NC(=O)N3CCC(CO)CC3)nc12 [drawing 188, reference compound] | > 6.00 |  | > 8.00 |  | < 6.00 | < 6.00 |
| COc1ccc(-c2cnn(C)c2)c2sc(NC(=O)c3ccnc(N4CCOCC4)c3)nc12 [reference compound] | > 6.00 |  | > 8.00 |  | > 6.00 | > 6.00 |
| COc1ncc(C2=CCOCC2)c2sc(NC(=O)c3c[nH]c(-c4cccnc4)n3)nc12 [Compound 140, 2-Pyridin-3-yl-1H-imidazole-4-carboxylic acid [7-(3,6-dihydro-2H-pyran-4-yl)-4-methoxy-thiazolo[4,5-c]pyridin-2-yl]-amide] | > 7.00 | > 6.00 | > 8.00 | < 6.00 |  |  |
| COc1ncc(C2=CCOCC2)c2sc(NC(=O)c3c[nH]c(-c4ccccn4)n3)nc12 [Compound 162, 2-Pyridin-2-yl-1H-imidazole-4-carboxylic acid [7-(3,6-dihydro-2H-pyran-4-yl)-4-methoxy-thiazolo[4,5-c]pyridin-2-yl]-amide] | > 8.00 | > 6.00 | > 8.00 | < 6.00 |  |  |
| COc1ncc(C2CCC(F)(F)CC2)c2sc(NC(=O)N3CCC4(CCOCC4)C3)nc12 [Compound 111, 8-Oxa-2-aza-spiro[4.5]decane-2-carboxylic acid [7-(4,4-difluoro-cyclohexyl)-4-methoxy-thiazolo[4,5-c]pyridin-2-yl]-amide] | > 7.00 | > 6.00 | > 8.00 | < 6.00 |  |  |

Now from value to compound:

| pIC50 [1] | pIC50 [2] | pIC50 [3] | pIC50 [4] | pIC50 ([2]; cAMP) | pIC50 ([4]; cAMP) | SMILES |
| --- | --- | --- | --- | --- | --- | --- |
| > 8.00 | > 6.00 | > 8.00 | < 6.00 |  |  | COc1nc(F)c(C2CCOCC2)c2sc(NC(=O)c3cnn(C)c3)nc12 [Compound 23, N-[6-fluoro-4-methoxy-7-(oxan-4-yl)-[1,3]thiazolo[4,5-c]pyridin-2-yl]-1-methyl-1H-pyrazole-4-carboxamide] |
| > 6.00 | < 6.00 | > 8.00 | < 6.00 |  |  | COc1ncc(C2=CCC(OC)CC2)c2sc(NC(=O)N3CC[C@@]4(CCCOC4)C3)nc12 (stereo partly drawn) [Compound 77, (5S)-N-[4-methoxy-7-(4-methoxycyclohex-1-en-1-yl)-[1,3]thiazolo[4,5-c]pyridin-2-yl]-7-oxa-2-azaspiro[4.5]decane-2-carboxamide] |
| > 6.00 |  | > 8.00 |  | > 6.00 | > 6.00 | COc1ccc(-c2cnn(C)c2)c2sc(NC(=O)N3CCC(C)(O)CC3)nc12 [reference compound] |
| > 7.00 | > 6.00 | > 8.00 | < 6.00 |  |  | COCCOCCn1cc(-c2cnc(OC)c3nc(NC(=O)N4CCC5(CCOCC5)C4)sc23)cn1 [Compound 103, 8-Oxa-2-aza-spiro[4.5]decane-2-carboxylic acid (4-methoxy-7-{1-[2-(2-methoxy-ethoxy)-ethyl]-1H-pyrazol-4-yl}-thiazolo[4,5-c]pyridin-2-yl)-amide] |
| > 8.00 | > 6.00 | > 8.00 | > 6.00 |  |  | COc1ncc(C2=CCOCC2)c2sc(NC(=O)c3cnc4ccccn34)nc12 [Compound 135, Imidazo[1,2-a]pyridine-3-carboxylic acid [7-(3,6-dihydro-2H-pyran-4-yl)-4-methoxy-thiazolo[4,5-c]pyridin-2-yl]-amide] |
| > 7.00 | < 6.00 | > 8.00 | < 6.00 |  |  | COc1ncc(-c2cccc(NCc3cocn3)c2)c2sc(NC(=O)N3CCC4(CCOCC4)C3)nc12 [Compound 166, 8-Oxa-2-aza-spiro[4.5]decane-2-carboxylic acid (4-methoxy-7-{3-[(oxazol-4-ylmethyl)-amino]-phenyl}-thiazolo[4,5-c]pyridin-2-yl)-amide] |
| > 6.00 |  | > 8.00 |  | < 6.00 | > 6.00 | COc1ccc(N2CCOCC2)c2sc(NC(=O)N3CCCCC3)nc12 [drawing 191, reference compound] |
| > 7.00 | < 6.00 | > 8.00 | < 6.00 |  |  | COc1ncc(C2=CCOCC2)c2sc(NC(=O)N3CC[C@@]4(CCCNC4)C3)nc12 [Compound 121, (R)-2,7-Diaza-spiro[4.5]decane-2-carboxylic acid [7-(3,6-dihydro-2H-pyran-4-yl)-4-methoxy-thiazolo[4,5-c]pyridin-2-yl]-amide] |
